For orientation: IC50 means the concentration that inhibits the measured activity by half.

IC50 data for one compound are collected here from ChEMBL document CHEMBL1125830, “Phosphonate-containing inhibitors of tyrosine-specific protein kinases” (J Med Chem, 1991).

The target in experiment [1] is Insulin receptor (Homo sapiens, UniProt P06213). Put plainly: Inhibition of insulin receptor autophosphorylation.
For experiment [2], the target named is Epidermal growth factor receptor (Homo sapiens, UniProt P00533). Briefly: Inhibition of Epidermal growth factor receptor autophosphorylation in A431 cell membranes.
Sequence of Epidermal growth factor receptor (P00533 whole entry): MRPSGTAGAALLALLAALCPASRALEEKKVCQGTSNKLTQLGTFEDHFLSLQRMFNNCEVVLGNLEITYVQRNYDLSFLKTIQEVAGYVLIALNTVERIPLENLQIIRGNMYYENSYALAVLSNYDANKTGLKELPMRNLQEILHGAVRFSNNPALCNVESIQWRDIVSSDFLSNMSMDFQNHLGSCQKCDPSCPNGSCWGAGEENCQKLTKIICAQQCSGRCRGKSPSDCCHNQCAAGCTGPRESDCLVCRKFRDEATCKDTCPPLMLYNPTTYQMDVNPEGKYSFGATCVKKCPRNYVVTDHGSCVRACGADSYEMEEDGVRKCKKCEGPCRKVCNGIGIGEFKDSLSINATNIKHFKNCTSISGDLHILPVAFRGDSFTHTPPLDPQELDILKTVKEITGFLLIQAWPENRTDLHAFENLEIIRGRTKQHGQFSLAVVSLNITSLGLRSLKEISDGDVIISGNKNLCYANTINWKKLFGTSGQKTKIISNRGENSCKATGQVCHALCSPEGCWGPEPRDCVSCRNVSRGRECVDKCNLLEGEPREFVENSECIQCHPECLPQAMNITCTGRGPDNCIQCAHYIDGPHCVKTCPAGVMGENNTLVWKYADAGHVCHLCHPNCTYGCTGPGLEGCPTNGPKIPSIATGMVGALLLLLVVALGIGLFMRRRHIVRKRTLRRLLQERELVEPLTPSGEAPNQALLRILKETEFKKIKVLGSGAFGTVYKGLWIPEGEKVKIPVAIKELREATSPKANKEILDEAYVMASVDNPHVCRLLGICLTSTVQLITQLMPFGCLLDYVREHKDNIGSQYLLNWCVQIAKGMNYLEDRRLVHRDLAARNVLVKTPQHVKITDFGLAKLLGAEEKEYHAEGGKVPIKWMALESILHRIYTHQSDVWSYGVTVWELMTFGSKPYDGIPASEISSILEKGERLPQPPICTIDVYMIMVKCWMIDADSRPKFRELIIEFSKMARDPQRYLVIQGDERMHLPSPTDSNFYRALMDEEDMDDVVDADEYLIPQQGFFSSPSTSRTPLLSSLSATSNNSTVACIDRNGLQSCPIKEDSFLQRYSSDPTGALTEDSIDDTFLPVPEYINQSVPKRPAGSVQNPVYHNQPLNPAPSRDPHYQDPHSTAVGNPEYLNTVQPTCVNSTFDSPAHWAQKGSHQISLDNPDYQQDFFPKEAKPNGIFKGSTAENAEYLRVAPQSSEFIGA

Sequence of Insulin receptor (P06213 28-758 limits assumed): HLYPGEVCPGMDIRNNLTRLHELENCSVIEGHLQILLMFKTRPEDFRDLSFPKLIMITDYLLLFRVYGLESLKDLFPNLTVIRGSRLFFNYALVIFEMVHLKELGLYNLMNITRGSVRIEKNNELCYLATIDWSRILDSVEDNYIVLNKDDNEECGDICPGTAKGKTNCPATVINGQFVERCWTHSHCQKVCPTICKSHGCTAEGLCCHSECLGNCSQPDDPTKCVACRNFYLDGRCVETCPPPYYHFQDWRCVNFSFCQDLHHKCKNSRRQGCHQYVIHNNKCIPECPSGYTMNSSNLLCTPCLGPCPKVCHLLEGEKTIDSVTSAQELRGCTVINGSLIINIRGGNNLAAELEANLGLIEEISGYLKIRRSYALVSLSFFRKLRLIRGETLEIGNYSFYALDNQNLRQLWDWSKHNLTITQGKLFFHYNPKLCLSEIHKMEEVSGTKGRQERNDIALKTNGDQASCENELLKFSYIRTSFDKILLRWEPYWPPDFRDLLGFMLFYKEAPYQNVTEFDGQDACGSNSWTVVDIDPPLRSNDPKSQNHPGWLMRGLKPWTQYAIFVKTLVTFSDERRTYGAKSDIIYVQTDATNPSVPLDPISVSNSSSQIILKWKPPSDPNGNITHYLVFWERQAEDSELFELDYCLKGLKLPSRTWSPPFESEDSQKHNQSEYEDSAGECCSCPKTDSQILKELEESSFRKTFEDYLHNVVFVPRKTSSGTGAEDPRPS
Sequence of Insulin receptor (P06213 763-1382 limits assumed): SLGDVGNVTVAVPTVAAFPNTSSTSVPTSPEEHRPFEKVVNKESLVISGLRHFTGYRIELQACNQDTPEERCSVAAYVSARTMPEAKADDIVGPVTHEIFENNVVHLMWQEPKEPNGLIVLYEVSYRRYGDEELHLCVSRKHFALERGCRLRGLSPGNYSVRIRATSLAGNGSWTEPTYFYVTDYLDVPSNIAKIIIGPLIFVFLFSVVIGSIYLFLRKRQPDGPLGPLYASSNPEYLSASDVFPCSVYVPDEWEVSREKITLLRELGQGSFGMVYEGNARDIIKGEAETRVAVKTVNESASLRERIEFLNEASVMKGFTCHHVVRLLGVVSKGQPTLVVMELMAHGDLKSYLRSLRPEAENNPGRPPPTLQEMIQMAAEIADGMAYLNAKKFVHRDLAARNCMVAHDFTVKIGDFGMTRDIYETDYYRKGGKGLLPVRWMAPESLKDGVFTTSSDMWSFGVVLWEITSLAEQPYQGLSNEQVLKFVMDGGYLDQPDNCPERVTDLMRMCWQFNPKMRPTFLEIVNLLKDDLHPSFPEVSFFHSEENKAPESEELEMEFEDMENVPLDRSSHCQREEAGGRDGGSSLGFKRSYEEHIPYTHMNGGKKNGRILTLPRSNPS

Consider `O=P(O)(O)C(O)c1ccc2ccccc2c1` (configuration not stated), for which the IC50 in experiment [1] worked out at 200 µM; in experiment [2], 250 µM.
